Source: ChEMBL document CHEMBL1821708, “Piperazinyl quinolines as chemosensitizers to increase fluconazole susceptibility of Candida albicans clinical isolates” (Bioorg Med Chem Lett, 2011)
Converted amounts (≈) assume the structure as drawn.

How the values were obtained:
Candida albicans [1] = assay: Growth inhibition of Candida albicans isolate CaCi-2 assessed as relative fungal growth in presence of Fluconazole after 48 hrs by Almar blue fluorometry; assay type: functional, organism-based; conditions: isolate CaCi-2, 48 h
Candida albicans [2] = assay: Growth inhibition of Candida albicans isolate CaCi-8 assessed as relative fungal growth in presence of Fluconazole after 48 hrs by Almar blue fluorometry; assay type: functional, organism-based; conditions: isolate CaCi-8, 48 h
[3] = Aqueous solubility of the compound in phosphate buffered saline; assay type: physicochemical
[4] = Inhibition of HSP90 signaling pathway in Candida albicans
[5] = Inhibition of calcineurin signaling pathway in Candida albicans
Candida albicans [6] = assay: Growth inhibition of Candida albicans isolate CaCi-2 at 1 uM after 48 hrs by Almar blue fluorimetry in presence of fluconazole; assay type: functional; conditions: isolate CaCi-2, 48 h, read-out: GI
Candida albicans [7] = assay: Growth inhibition of Candida albicans isolate CaCi-8 at 1 uM after 48 hrs by Almar blue fluorometry in presence of Fluconazole; assay type: functional; conditions: isolate CaCi-8, 48 h, read-out: GI
Candida albicans [8] = assay: Antifungal activity against Candida albicans CaCi-2 clinical isolate; assay type: functional
Candida albicans [9] = assay: Antifungal activity against Candida albicans CaCi-8 clinical isolate; assay type: functional

| Structure (SMILES) | IC50 (Candida albicans [1]) | IC50 (Candida albicans [2]) | other results |
| --- | --- | --- | --- |
| O=C(c1csc2ccccc12)N1CCN(c2ccnc3cc(Cl)ccc23)CC1 | 1.9 µM | 4 µM | solubility ([3]; buffer): soluble |
| COc1ccc2c(N3CCN(C(=O)c4ccc(Cl)cc4)CC3)ccnc2c1 | 4.8 µM | 13.7 µM |  |
| O=C(c1ccc(Cl)cc1)N1CCN(c2ncccn2)CC1 | 7.1 µM | 18.1 µM |  |
| CCCC(=O)N1CCN(c2ccnc3cc(Cl)ccc23)CC1 | 6.3 µM | 15 µM |  |
| O=C(c1ccc(Cl)cc1)N1CCN(c2ccnc3ccc(Cl)cc23)CC1 | 2.4 µM | 6.3 µM |  |
| Cn1ccnc1N1CCN(C(=O)c2ccc(Cl)cc2)CC1 | 6.2 µM | > 26 µM |  |
| O=C(c1ccc(Cl)cc1)N1CCN(c2ccnc3ccccc23)CC1 | 5.7 µM | 14.7 µM |  |
| O=C(c1ccc(Cl)cc1)N1CCN(c2ccnc3cc(Cl)ccc23)CC1 | 0.7 µM | 1.3 µM | solubility ([3]; phosphate buffered saline, read-out: solubility): < 5 µM; IC50 [4]: > 26 µM; IC50 [5]: > 26 µM; inhibition of growth at 1 µM (Candida albicans [6]): 97%; inhibition of growth at 1 µM (Candida albicans [7]): 97% |
| CC(C)C(=O)N1CCN(c2ccnc3cc(Cl)ccc23)CC1 | 7.2 µM | > 26 µM |  |
| COc1ccc(C(=O)N2CCN(c3ccnc4cc(Cl)ccc34)CC2)cc1 | 5.3 µM | 16.8 µM |  |
| O=C(c1ccccc1)N1CCN(c2ccnc3cc(Cl)ccc23)CC1 | 4.4 µM | 6.1 µM |  |
| O=C(c1ccc(Cl)cc1)N1CCN(c2nc3ccccc3s2)CC1 | 5.5 µM | 10.8 µM |  |
| O=C(c1ccc(Cl)c(Cl)c1)N1CCN(c2ccnc3cc(Cl)ccc23)CC1 | 1 µM | 2.1 µM |  |
| O=C(c1ccc(Cl)cn1)N1CCN(c2ccnc3cc(Cl)ccc23)CC1 | 4.9 µM | 4.1 µM | solubility ([3]; buffer): soluble |
| O=C(c1cccc(Cl)c1)N1CCN(c2ccnc3cc(Cl)ccc23)CC1 | 4.4 µM | 7.8 µM |  |
| Cc1ccc(N2CCN(C(=O)c3ccc(Cl)cc3)CC2)nn1 | 8.5 µM | 20.6 µM |  |

| Structure (SMILES) | IC50 (Candida albicans [1]) | IC50 (Candida albicans [2]) | other results |
| --- | --- | --- | --- |
| Cc1ccc(C(=O)N2CCN(c3ccnc4cc(Cl)ccc34)CC2)cc1 | 2.3 µM | 3.1 µM |  |
| OC(Cn1cncn1)(Cn1cncn1)c1ccc(F)cc1F [FLUCONAZOLE] |  |  | MIC (Candida albicans [8]): 6.5 µM (≈ 1.99 µg/mL); MIC (Candida albicans [9]): 26 µM (≈ 7.96 µg/mL) |
| O=C(c1ccc(Cl)cc1)N1CCN(c2cccnc2)CC1 | 7.3 µM | > 26 µM |  |
| O=C(C1CCCC1)N1CCN(c2ccnc3cc(Cl)ccc23)CC1 | 3.6 µM | 5.3 µM |  |
| O=C(c1ccc(Cl)nc1)N1CCN(c2ccnc3cc(Cl)ccc23)CC1 | 6.7 µM | 10.9 µM | solubility ([3]; buffer): soluble |
| O=C(c1ccc(F)cc1)N1CCN(c2ccnc3cc(Cl)ccc23)CC1 | 3.6 µM | 4.2 µM |  |
| O=C(c1ccccc1Cl)N1CCN(c2ccnc3cc(Cl)ccc23)CC1 | 7.3 µM | 14.1 µM |  |
| O=C(C1CCCCC1)N1CCN(c2ccnc3cc(Cl)ccc23)CC1 | 1.7 µM | 4 µM |  |
| O=C(c1ccc(Cl)cc1)N1CCN(c2ccncc2)CC1 | 7.3 µM | > 26 µM |  |
| O=C(c1ccc(Cl)cc1)N1CCN(c2ncnc3ccccc23)CC1 | 4.8 µM | 11 µM |  |
| O=C(c1ccc(Cl)cc1)N1CCN(c2cnccn2)CC1 | 9 µM | 22.2 µM |  |
| O=C(c1ccc(Cl)cc1)N1CCN(c2nccs2)CC1 | 6.9 µM | 18.9 µM |  |
| Cc1cc(N2CCN(C(=O)c3ccc(Cl)cc3)CC2)c2ccccc2n1 | 7.3 µM | > 26 µM |  |
| O=C(c1ccc(Cl)cc1)N1CCN(c2ccccn2)CC1 | > 10 µM | 24 µM |  |
| O=C(c1ccc(Cl)cc1)N1CCN(c2ccc(Cl)cc2)CC1 | 8.7 µM | 19 µM |  |
| O=C(Nc1ccc(Cl)cc1)N1CCN(c2ccnc3cc(Cl)ccc23)CC1 | 4.2 µM | 2.3 µM |  |
